ChEMBL document CHEMBL4118101 (Bioorg Med Chem, 2018)
In brackets after ≈: the same amount, converted by molar mass. Activity calls are given as the source filed them. No cut-off for these calls is given here.

Columns and labels:
Cryptococcus neoformans [1] = assay: Antifungal activity against Cryptococcus neoformans isolate CN2 measured after 48 hrs by CLSI M27-A3 protocol based method; type: functional
Candida parapsilosis [2] = assay: Antifungal activity against Candida parapsilosis ATCC 22019 measured after 48 hrs in presence of 10% FBS by CLSI M27-A3 protocol based method; type: functional
Candida albicans [3] = assay: Antifungal activity against Candida albicans ATCC 10231 measured after 48 hrs in presence of 10% FBS by CLSI M27-A3 protocol based method; type: functional
Candida albicans [4] = assay: Induction of membrane permeabilization in Candida albicans ATCC 10231 assessed as membrane disruption at 4 times MIC after 1 hr by propidium iodide staining based fluorescence microscopy; type: functional, organism-based
Candida albicans [5] = assay: Antifungal activity against fluconazole/ITC-resistant Candida albicans ATCC 90819 measured after 48 hrs by CLSI M27-A3 protocol based method; type: functional
[6] = Hemolytic activity in mouse RBC at 7.8 ug/ml after 1 hr relative to control; type: ADME, cell-based, Erythrocyte; settings: mouse red blood cells (erythrocytes), read-out: Activity
[7] = Hemolytic activity in mouse RBC at […] ug/ml after 1 hr relative to control; type: ADME, cell-based, Erythrocyte; settings: mouse red blood cells (erythrocytes), read-out: Activity
[8] = Hemolytic activity in mouse RBC at 0.48 ug/ml after 1 hr relative to control; type: ADME, cell-based, Erythrocyte; settings: mouse red blood cells (erythrocytes), read-out: Activity
Nakaseomyces glabratus [9] = assay: Antifungal activity against Candida glabrata isolate CG3 measured after 48 hrs by CLSI M27-A3 protocol based method; type: functional
Candida parapsilosis [10] = assay: Antifungal activity against Candida parapsilosis isolate CP1 measured after 48 hrs by CLSI M27-A3 protocol based method; type: functional
Erythrocyte = assay: Hemolytic activity in mouse RBC at 62.5 ug/ml after 1 hr relative to control; type: ADME, cell-based; settings: erythrocyte, 1 h
Candida parapsilosis [11] = assay: Antifungal activity against Candida parapsilosis isolate CP3 measured after 48 hrs by CLSI M27-A3 protocol based method; type: functional
Candida albicans [12] = assay: Antifungal activity against fluconazole/ITC-susceptible Candida albicans ATCC MYA-2876 measured after 48 hrs by CLSI M27-A3 protocol based method; type: functional
Candida albicans [13] = assay: Inhibition of Candida albicans ATCC 10231 ERG11 assessed as ergosterol composition of total sterols at 0.12 ug/ml incubated for 10 mins followed by saponification for 2 hrs by GC-MS method (reference value: 100%); set-up: scale not given: the % may be the effect or the level left
Candida albicans [14] = assay: Inhibition of Candida albicans ATCC 10231 ERG11 assessed as eburicol composition of total sterols at 0.12 ug/ml incubated for 10 mins followed by saponification for 2 hrs by GC-MS method relative to control; set-up: scale not given: the % may be the effect or the level left
Aspergillus nidulans [15] = assay: Antifungal activity against Aspergillus nidulans ATCC 38163 measured after 48 hrs by CLSI M38-A2 protocol based method; type: functional; settings: ATCC 38163, 48 h
Candida albicans [16] = assay: Inhibition of Candida albicans ATCC 10231 ERG11 assessed as lanosterol composition of total sterols at 0.12 ug/ml incubated for 10 mins followed by saponification for 2 hrs by GC-MS method relative to control; set-up: scale not given: the % may be the effect or the level left
Pichia kudriavzevii = assay: Antifungal activity against Candida krusei ATCC 6258 measured after 48 hrs by CLSI M27-A3 protocol based method; type: functional
Candida albicans [17] = assay: Antifungal activity against Candida albicans ATCC 64124 measured after 48 hrs by CLSI M27-A3 protocol based method; type: functional
[18] = Hemolytic activity in mouse RBC at 1.95 ug/ml after 1 hr relative to control; type: ADME, cell-based, Erythrocyte; settings: mouse red blood cells (erythrocytes), at 1.95 µg/mL, read-out: Activity
Cryptococcus neoformans [19] = assay: Antifungal activity against Cryptococcus neoformans isolate CN3 measured after 48 hrs by CLSI M27-A3 protocol based method; type: functional
Candida albicans [20] = assay: Antifungal activity against fluconazole/ITC-resistant Candida albicans ATCC MYA-1237 measured after 48 hrs by CLSI M27-A3 protocol based method; type: functional
Nakaseomyces glabratus [21] = assay: Antifungal activity against Candida glabrata isolate CG1 measured after 48 hrs by CLSI M27-A3 protocol based method; type: functional
Candida parapsilosis [22] = assay: Fungistatic activity against Candida parapsilosis ATCC 22019 up to 4 times MIC incubated for 24 hrs by time kill assay; type: functional, organism-based
Candida albicans [23] = assay: Antifungal activity against fluconazole/ITC-susceptible Candida albicans ATCC MYA-2310 measured after 48 hrs by CLSI M27-A3 protocol based method; type: functional
Nakaseomyces glabratus [24] = assay: Antifungal activity against Candida glabrata ATCC 2001 measured after 48 hrs by CLSI M27-A3 protocol based method; type: functional, CBS 138
Candida albicans [25] = assay: Inhibition of Candida albicans ATCC 10231 ERG11 assessed as 14alphamethyl ergosta-8,24(28)-diene-3beta,6alpha-diol composition of total sterols at 0.12 ug/ml incubated for 10 mins followed by saponification for 2 hrs by GC-MS method relative to control; set-up: scale not given: the % may be the effect or the level left
Nakaseomyces glabratus [26] = assay: Antifungal activity against Candida glabrata isolate CG2 measured after 48 hrs by CLSI M27-A3 protocol based method; type: functional
Aspergillus nidulans [27] = assay: Antifungal activity against Aspergillus nidulans ATCC 38163 measured after 48 hrs in presence of 10% FBS by CLSI M38-A2 protocol based method; type: functional; settings: ATCC 38163, 48 h
[28] = Hemolytic activity in mouse RBC at 3.9 ug/ml after 1 hr relative to control; type: ADME, cell-based, Erythrocyte; settings: mouse red blood cells (erythrocytes), read-out: Activity
Candida albicans [29] = assay: Antifungal activity against fluconazole/ITC-resistant Candida albicans ATCC MYA-1003 measured after 48 hrs by CLSI M27-A3 protocol based method; type: functional
Candida parapsilosis [30] = assay: Antifungal activity against Candida parapsilosis isolate CP2 measured after 48 hrs by CLSI M27-A3 protocol based method; type: functional
Candida parapsilosis [31] = assay: Antifungal activity against Candida parapsilosis ATCC 22019 measured after 48 hrs by CLSI M27-A3 protocol based method; type: functional
Aspergillus terreus = assay: Antifungal activity against Aspergillus terreus ATCC MYA-3633 measured after 48 hrs by CLSI M38-A2 protocol based method; type: functional; settings: ATCC MYA-3633, 48 h
Candida albicans [32] = assay: Fungistatic activity against Candida albicans ATCC 10231 at 4 times MIC incubated for 24 hrs by time kill assay; type: functional, organism-based

In the case of C[C@@H](c1ncncc1F)[C@](O)(Cn1cncn1)c1ccc(F)cc1F [VORICONAZOLE], the MIC (Cryptococcus neoformans [1]) is reported as 2.76 µM (≈ 0.964 µg/mL), the “MIC=<50” value (Candida parapsilosis [2]) is reported as 0.015 µg/mL and the “MIC=<50” value (Candida albicans [3]) is reported as 0.48 µg/mL. For the same compound, the Activity (Candida albicans [4]) was “inactive”, the MIC (Candida albicans [5]) was 5.6 µM (≈ 1.96 µg/mL) and the hemolysis at 1 h, 7.8 ug/ml [6] was 11%. The hemolysis at 1 h, 0.975 ug/ml [7] was 10%, the hemolysis at 1 h, 15.6 ug/ml [7] was 3% and the hemolysis at 1 h, 0.48 ug/ml [8] was 9%. For the same compound, the MIC (Nakaseomyces glabratus [9]) was >89.9 µM, the “MIC=<50” value (Candida parapsilosis [10]) was <0.06 µM and the Activity (Erythrocyte) was 100%. For the same compound, the “MIC=<50” value (Candida parapsilosis [11]) was <0.06 µM, the “MIC=<50” value (Candida albicans [12]) was 5.6 µM (≈ 1.96 µg/mL) and the Activity (Candida albicans [13]) was 50.8%. It also gave an Activity (Candida albicans [14]) of 1.73%, an MIC (Aspergillus nidulans [15]) of 0.34 µM (≈ 0.119 µg/mL) and an Activity (Candida albicans [16]) of 15.2%. The “MIC=<50” value (Pichia kudriavzevii) was 0.34 µM (≈ 0.119 µg/mL), the MIC (Candida albicans [17]) was 11.2 µM (≈ 3.91 µg/mL) and the hemolysis at 1 h, 1.95 ug/ml [18] was 6%. The MIC (Cryptococcus neoformans [19]) was 0.35 µM (≈ 0.122 µg/mL), the MIC (Candida albicans [20]) was 22.3 µM (≈ 7.79 µg/mL) and the MIC (Nakaseomyces glabratus [21]) was 2.76 µM (≈ 0.964 µg/mL). For the same compound, the Activity (Candida parapsilosis [22]) was “Active”, the MIC (Candida albicans [23]) was 2.8 µM (≈ 0.978 µg/mL) and the MIC (Nakaseomyces glabratus [24]) was 0.17 to 0.69 µM. The Activity (Candida albicans [25]) was 9.86%, the MIC (Nakaseomyces glabratus [26]) was 11.2 µM (≈ 3.91 µg/mL) and the MIC (Aspergillus nidulans [27]) was 0.12 µg/mL. The hemolysis at 1 h, 3.9 ug/ml [28] was 7%, the MIC (Candida albicans [29]) was 5.6 µM (≈ 1.96 µg/mL) and the “MIC=<50” value (Candida parapsilosis [30]) was <0.06 µM. For the same compound, the “MIC=<50” value (Candida parapsilosis [31]) was <0.06 µM, the MIC (Aspergillus terreus) was 0.34 µM (≈ 0.119 µg/mL) and the Activity (Candida albicans [32]) was “Active”.
